Measured values: patent publication US20120010075A1 (priority 2009, published 2012)
Read-outs that look alike come from different tables or passages of the source.

How the values were obtained:
[1] = tested on: Leptosphaeria nodorum (LEPTNO); assay: Effect of copper on fungitoxicity of metal-hydrazone complexes towards Leptosphaeria nodorum (Example 33, Table 9); format: cell-based; settings: CuCl2, 10 μM, no test compound, across experiments
Phytophthora capsici [2] = assay: In vitro fungitoxicity of hydrazones with and without copper towards Phytophthora capsici (Example 28, Table 3); format: cell-based; settings: CuCl2, 50 μM, no test compound, across experiments
Phytophthora infestans [3] = format: in vivo, Phytophthora infestans on tomato; settings: Late blight, 160 μM
Phytophthora capsici [4] = assay: Effect of copper on fungitoxicity of metal-hydrazone complexes towards Phytophthora capsici (Example 34, Table 10); format: cell-based; settings: CuCl2, 50 μM, no test compound, across experiments
Phytophthora capsici [5] = assay: Fungitoxicity of copper-hydrazone mixtures of different ratios towards Phytophthora capsici (Example 36, Table 12); format: cell-based
Procedure: In vitro fungitoxicity assays against Phytophthora capsici were conducted using the copper-minus AS medium described in Example 28. Mixtures containing hydrazone compound 16 at 200 nM and CuCl2.2H2O at 0.2 μM (1:1 molar ratio), 0.8 μM (1:4 ratio), 3.2 μM (1:16 ratio), 12.5 μM (1:62.5 ratio), 50 μM (1:200 ratio) and 200 μM (1:1000 ratio) were prepared in copper-minus AS medium. Two-fold dilution series of these mixtures were then prepared in 100 μL aliquots of copper-minus AS medium in flat-bottomed 96-well microtiter plates. A suspension of P. capsici zoospores in Chelex-treated water at 5×10^4 spores per mL was prepared as in Example 28. Microtiter plates were inoculated with 100 μL of the spore suspension and incubated at 25° C. for 48 h before assessing fungal growth by measuring light scattering in a NepheloStar plate reader.
(§1) Growth inhibition was determined by comparing growth in the presence of copper-hydrazone mixture with growth in control wells lacking the copper-hydrazone mixture. EC50 values were calculated from dose-response curves, and are expressed as the amounts of hydrazone or copper in each test mixture at the rates providing 50% inhibition of growth as compared to a control lacking the copper-hydrazone mixture.

Plasmopara viticola = tested on: Plasmopara viticola; parameters: species or system Plasmopara viticola on grape; settings: in vivo
[6] = tested on: Leptosphaeria nodorum (LEPTNO); assay: Fungitoxicity of copper-hydrazone mixtures of different ratios towards Leptosphaeria nodorum (Example 35, Table 11); format: cell-based
Procedure: In vitro fungitoxicity assays against LEPTNO were conducted using the copper-minus medium described in Example 26. Mixtures containing hydrazone compound 16 at 200 nM and CuCl2 at 0.2 μM (1:1 molar ratio), 0.8 μM (1:4 ratio), 12.5 μM (1:62.5 ratio) and 200 μM (1:1000 ratio) were prepared in copper-minus medium. Two-fold dilution series of these mixtures were then prepared in 100 μL aliquots of copper-minus medium in flat-bottomed 96-well microtiter plates. A suspension of LEPTNO spores in copper-minus medium at 2×10^5 spores per mL was prepared as in Example 26. Microtiter plates were inoculated with 100 μL of the spore suspension and the plates were incubated at 25° C. for 72 h before assessing fungal growth by measuring light scattering in a NepheloStar plate reader.
as §1

[7] = tested on: Septoria tritici isolate USA-184; assay: In vitro fungitoxicity of hydrazones with and without copper towards Septoria tritici (Example 30, Table 5); format: cell-based; settings: no test compound
Ustilago maydis = assay: In vitro fungitoxicity of hydrazones with and without copper towards Ustilago maydis (Example 29, Table 4); format: cell-based; settings: CuCl2, 10 μM, no test compound
Phytophthora infestans [8] = format: in vivo, Phytophthora infestans on tomato (Outdoor Girl); settings: no hydrazone
[9] = tested on: Leptosphaeria nodorum (LEPTNO); assay: In vitro fungitoxicity of hydrazones with and without copper towards Leptosphaeria nodorum (Example 26); format: cell-based; settings: CuCl2 10 μM alone, no test compound; copper-plus versus copper-minus medium across experiments
[10] = CuCl2 without hydrazone, read-out: CuCl2 EC50
[11] = mixture with hydrazone compound 16, Hydrazone:Cu ratio 1 to 1, read-out: CuCl2 EC50 (amount of CuCl2 in mixture at EC50)
[12] = mixture with hydrazone compound 16, Hydrazone:Cu ratio 1 to 4, read-out: CuCl2 EC50 (amount of CuCl2 in mixture at EC50)
[13] = mixture with hydrazone compound 16, Hydrazone:Cu ratio 1 to 62.5, read-out: CuCl2 EC50 (amount of CuCl2 in mixture at EC50)
[14] = mixture with hydrazone compound 16, Hydrazone:Cu ratio 1 to 1000, read-out: CuCl2 EC50 (amount of CuCl2 in mixture at EC50)

O.O.[Cl][Cu][Cl] [CuCl2, CuCl2.2H2O, reference compound]
% Inhn. attributed to copper chloride alone [1]: 3.3% | % Inhn attributed to copper chloride alone (Phytophthora capsici [2]): 4.5 ± 7.9% | % Control Observed (Phytophthora infestans [3]): 69% | % Inhn. attributed to copper chloride alone (Phytophthora capsici [4]): 4.6% | EC50 (Phytophthora capsici [5]; [10]): 720000 nM | EC50 (Phytophthora capsici [5]; [11]): 71 nM | EC50 (Phytophthora capsici [5]; [12]): 189 nM | EC50 (Phytophthora capsici [5]; mixture with hydrazone compound 16, Hydrazone:Cu ratio 1 to 16, read-out: CuCl2 EC50 (amount of CuCl2 in mixture at EC50)): 441 nM | EC50 (Phytophthora capsici [5]; [13]): 1040 nM | EC50 (Phytophthora capsici [5]; mixture with hydrazone compound 16, Hydrazone:Cu ratio 1 to 250, read-out: CuCl2 EC50 (amount of CuCl2 in mixture at EC50)): 1900 nM | EC50 (Phytophthora capsici [5]; [14]): 4560 nM | % Control Observed (Plasmopara viticola): 1% | EC50 [6, 10]: 118000 nM | EC50 [6, 11]: 72 nM | EC50 [6, 12]: 172 nM | EC50 [6, 13]: 1770 nM | EC50 [6, 14]: 14000 nM | effect of copper chloride alone on growth ([7]; 1 μM): no effect on growth | % Inhibition attributed to copper chloride alone ([7]; CuCl2, 1 μM): 0% | % Inhn. attributed to copper chloride alone (Ustilago maydis): 11.9% | % Control of Tomato Late Blight (Phytophthora infestans [8]; CuCl2 10 μM alone): 1.7% | % Control of Tomato Late Blight (Phytophthora infestans [8]; CuCl2 50 μM alone): 8.5% | % Control of Tomato Late Blight (Phytophthora infestans [8]; CuCl2 200 μM alone): 38.2% | % Control of Tomato Late Blight (Phytophthora infestans [8]; CuCl2 400 μM alone): 56.0% | % Control of Tomato Late Blight (Phytophthora infestans [8]; CuCl2 800 μM alone): 70.2% | LEPTNO % Inhn. Plus Copper Observed (copper chloride alone) [9]: 7.1 ± 6.0%
